Columns and labels:
Axl [1] = target: T1, Axl (Homo sapiens, UniProt P30530); assay: Axl NanoBRET intracellular kinase assay (intracellular binding, Cell Binding); set-up: host or cells: HEK-293; conditions: HEK-293 cells transfected with Axl-NanoLuc fusion vector; 0.35 μM K-5 NanoBRET tracer
T1 sequence (P30530 26-894): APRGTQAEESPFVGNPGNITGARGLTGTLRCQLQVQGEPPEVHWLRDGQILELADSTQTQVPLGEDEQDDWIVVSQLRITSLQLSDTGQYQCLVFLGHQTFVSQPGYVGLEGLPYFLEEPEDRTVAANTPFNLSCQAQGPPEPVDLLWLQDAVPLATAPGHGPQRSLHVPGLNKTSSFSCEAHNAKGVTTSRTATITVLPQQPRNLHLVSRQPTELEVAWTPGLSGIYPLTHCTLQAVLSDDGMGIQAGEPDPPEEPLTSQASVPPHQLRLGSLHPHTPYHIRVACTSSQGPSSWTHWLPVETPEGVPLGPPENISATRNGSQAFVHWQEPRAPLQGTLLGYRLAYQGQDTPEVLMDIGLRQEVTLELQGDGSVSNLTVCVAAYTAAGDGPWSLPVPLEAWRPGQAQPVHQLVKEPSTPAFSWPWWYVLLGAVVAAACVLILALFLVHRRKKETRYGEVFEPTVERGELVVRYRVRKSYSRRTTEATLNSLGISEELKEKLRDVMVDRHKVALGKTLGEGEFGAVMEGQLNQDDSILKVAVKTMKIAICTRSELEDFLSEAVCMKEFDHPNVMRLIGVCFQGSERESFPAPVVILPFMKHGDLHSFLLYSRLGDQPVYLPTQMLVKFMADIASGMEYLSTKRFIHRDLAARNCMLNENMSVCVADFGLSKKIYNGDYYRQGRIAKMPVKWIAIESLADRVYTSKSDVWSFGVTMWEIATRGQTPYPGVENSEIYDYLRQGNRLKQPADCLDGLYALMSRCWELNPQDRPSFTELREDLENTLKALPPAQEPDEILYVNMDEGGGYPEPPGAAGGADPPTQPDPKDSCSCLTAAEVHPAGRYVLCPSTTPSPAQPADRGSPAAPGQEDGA
Description: Axl NanoBRET™ intracellular kinase assay (Promega, N2540) was performed according to manufacturer's recommendation. In brief, HEK-293 cells are transiently transfected with Axl-NanoLuc fusion vector (Promega, NV1071), utilizing Fugene HD transfection reagent (Promega, E2311) a day before experiment following manufacturer's recommendation.
The day of the assay, the cells were collected and resuspended in Opti-MEM media (ThermoFisher, 31985070) at 2e5 cells/mL concentration. Testing compounds were serial diluted and dispensed into a white 384 well polystyrene plate at 200 nL in 100% DMSO. 40 μL of resuspended cells is then added per well for a final condition of 8K cells/well with 0.5% DMSO. After one-hour compound pre-incubation at 37° C. and 5% CO2, cells were further incubated with 0.35 μM K-5 NanoBRET tracer for two-hours at 37° C. and 5% CO2. […] of 3× substrate plus Inhibitor solution was prepared according to kits manual and added to the cells followed by a 30 second pulse centrifugation spin. The plate was then immediately read utilizing an Envision (Perkin Elmer) plate reader. The BRET signal is measured by taking the ratio of the emissions reading at 610 nm and 450 nm. Compound binding is based on the decrease BRET signal caused by the displacement of the K-5 tracer. […] IC50 value of compounds was determined by 4-parameter non-linear regression fitting of percent activity in GraphPad Prism software.

Axl [2] = target: T1, Axl; assay: HTRF KinEASE-TK biochemical potency assay, AXL; set-up: purchased Invitrogen; conditions: 5 nM AXL, 700 μM ATP, 800 nM TK Substrate-biotin
Description: Purified recombinant human AXL, TYRO3 and MER proteins were purchased from Invitrogen™. 10 nM AXL, 2 nM TYRO3 or MER were incubated with varying concentrations of compounds in 50 mM HEPES, pH 7.4, 10 mM MgCl2, 0.01% BSA, 1 mM DTT and 2% DMSO in a total volume of 20 μl in a 384-well microplate (Corning™ #3640) at RT for 1 h. The AXL, TYRO3 and MER enzymatic reaction was initiated by transferring 10 μl of enzyme and compound mixture into 10 μl of 1.6 μM TK Substrate-biotin (HTRF® KinEASE-TK kit, Cisbio) and 1400 μM ATP pre-incubated in 50 mM HEPES, pH 7.4, 10 mM MgCl2, 0.01% BSA, 1 mM DTT in a 384-well microplate (Corning™ #3640) at RT, giving the final reaction conditions: 5 nM AXL, 1 nM TYRO3 or MER, 800 nM TK Substrate-biotin and 700 μM ATP in 50 mM HEPES, pH 7.4, 10 mM MgCl2, 0.01% BSA, 1 mM DTT and 1% DMSO with varying concentrations of compounds. Following 2 h incubation at RT, the AXL, TYRO3 and MER enzymatic reaction was stopped by transfer of 10 μl of reaction into 10 μl of detection mix (400 nM Streptavidin-XL665, 200-fold dilution TK Antibody-Cryptate and detection buffer, HTRF® KinEASE-TK kit, Cisbio) in a white 384-well microplate (Perkin Elmer, OptiPlate 384). After 1 h incubation at RT, the plate was put into a plate reader (Evision) to read at 665/620 nm (acceptor/donor) for HTRF. The value of the DMSO blank (MIN inhibition=100% activity) was used as a negative control. The positive control was established by adding 5 μl of enzyme and DMSO mixture into 10 μl of detection mix followed by addition of 5 μl of TK Substrate-biotin and ATP mixture (MAX inhibition=0% activity). To calculate the percent activity, Equation 1 was used. Ratio 665/620 is the value at a given compound concentration: […]

| Compound | IC50 (Axl [1]) | IC50 (Axl [2]) |
| --- | --- | --- |
| C[C@@H]1CCCN1C1(C)CCc2ccc(-c3cnc4[nH]nc(-c5ccc(C(=O)N[C@@H]6CCOC6)cc5)c4c3)cc2CC1 (stereo partly drawn) [Example 99, 4-(5-{7-Methyl-7-[(2R)-2-methylpyrrolidin-1-yl]-6,7,8,9-tetrahydro-5H-benzo[7]annulen-2-yl}-1H-pyrazolo[3,4-b]pyridin-3-yl)-N-[(3R)-oxolan-3-yl]benzamide] | < 0.1 µM | < 0.1 µM |
| COc1cc(-c2n[nH]c3ncc(-c4ccc5c(c4)CCC(C)(N4CCC[C@H]4C)CC5)cc23)ccc1C(N)=O (stereo partly drawn) [Example 53, 2-Methoxy-4-(5-(7-methyl-7-((R)-2-methylpyrrolidin-1-yl)-6,7,8,9-tetrahydro-5H-benzo[7]annulen-2-yl)-1H-pyrazolo[3,4-b]pyridin-3-yl)benzamide] | < 0.1 µM | < 0.1 µM |
| CC(C)(O)c1ccc(-c2n[nH]c3ncc(-c4ccc5c(c4)CCC(N4CCCC4)CC5)cc23)cn1 (stereo not drawn) [Example 9, 2-(5-{5-[7-(Pyrrolidin-1-yl)-6,7,8,9-tetrahydro-5H-benzo[7]annulen-2-yl]-1H-pyrazolo[3,4-b]pyridin-3-yl}pyridin-2-yl)propan-2-ol] | < 0.1 µM | < 0.1 µM |
| COC1CCN(S(=O)(=O)c2ccc(-c3n[nH]c4ncc(-c5ccc6c(c5)CCC(C)(N5CCC[C@H]5C)CC6)cc34)cc2)CC1 (stereo partly drawn) [Example 103, 3-(4-((4-Methoxypiperidin-1-yl)sulfonyl)phenyl)-5-(7-methyl-7-((R)-2-methylpyrrolidin-1-yl)-6,7,8,9-tetrahydro-5H-benzo[7]annulen-2-yl)-1H-pyrazolo[3,4-b]pyridine] | 0.1 to 1 µM | < 0.1 µM |
| CCC1(N2CCC[C@H]2C)CCc2ccc(-c3cnc4[nH]nc(-c5ccc(S(=O)(=O)C6CC6)cc5)c4c3)cc2CC1 (stereo partly drawn) [Example 6, (2R)-1-(2-{3-[4-(Cyclopropanesulfonyl)phenyl]-1H-pyrazolo[3,4-b]pyridin-5-yl}-7-ethyl-6,7,8,9-tetrahydro-5H-benzo[7]annulen-7-yl)-2-methylpyrrolidine] | 0.1 to 1 µM | < 0.1 µM |
| FC1CN(c2ccc(-c3c[nH]c4ncc(-c5ccc6c(c5)CC[C@@H](N5C7COCC5C7)CC6)cc34)cc2)C1 [Example 127, 6-[(7S)-2-{3-[4-(3-fluoroazetidin-1-yl)phenyl]-1H-pyrrolo[2,3-b]pyridin-5-yl}-6,7,8,9-tetrahydro-5H-benzo[7]annulen-7-yl]-3-oxa-6-azabicyclo[3.1.1]heptane] | < 0.1 µM | < 0.1 µM |
| C[C@@H]1CCCN1C1(C)CCc2ccc(-c3cnc4[nH]nc(-c5ccc(C(C)(C)O)c(Cl)c5)c4c3)cc2CC1 (stereo partly drawn) [Example 57, 2-[2-Chloro-4-(5-{7-methyl-7-[(2R)-2-methylpyrrolidin-1-yl]-6,7,8,9-tetrahydro-5H-benzo[7]annulen-2-yl}-1H-pyrazolo[3,4-b]pyridin-3-yl)phenyl]propan-2-ol] | < 0.1 µM | < 0.1 µM |
| C[C@@H]1CCCN1C1CCc2ccc(-c3cnc4[nH]nc(-c5ccc(C(C)(C)O)c(Cl)c5)c4c3)cc2CC1 (stereo partly drawn) [Example 35, 2-(2-Chloro-4-(5-(7-((R)-2-methylpyrrolidin-1-yl)-6,7,8,9-tetrahydro-5H-benzo[7]annulen-2-yl)-1H-pyrazolo[3,4-b]pyridin-3-yl)phenyl)propan-2-ol] | < 0.1 µM | < 0.1 µM |
| C[C@@H]1CCCN1C1(C)CCc2ccc(-c3cnc4[nH]nc(-c5ccc(C(C)(C)O)nc5)c4c3)cc2CC1 (stereo partly drawn) [Example 22, 2-[5-(5-{7-Methyl-7-[(2R)-2-methylpyrrolidin-1-yl]-6,7,8,9-tetrahydro-5H-benzo[7]annulen-2-yl}-1H-pyrazolo[3,4-b]pyridin-3-yl)pyridin-2-yl]propan-2-ol] | < 0.1 µM | < 0.1 µM |

Now from value to compound:

| IC50 (Axl [1]) | IC50 (Axl [2]) | Compound |
| --- | --- | --- |
| < 0.1 µM | < 0.1 µM | C[C@@H]1CCCN1C1CCc2ccc(-c3cnc4[nH]nc(-c5ccc(S(=O)(=O)C6CC6)cc5)c4c3)cc2CC1 (stereo partly drawn) [Example 39, 3-(4-(Cyclopropylsulfonyl)phenyl)-5-(7-((R)-2-methylpyrrolidin-1-yl)-6,7,8,9-tetrahydro-5H-benzo[7]annulen-2-yl)-1H-pyrazolo[3,4-b]pyridine] |
| < 0.1 µM | < 0.1 µM | CC1(N2CCC2)CCc2ccc(-c3cnc4[nH]nc(-c5ccc(S(=O)(=O)C6CC6)cc5)c4c3)cc2CC1 (stereo not drawn) [Example 7, 1-(2-{3-[4-(Cyclopropanesulfonyl)phenyl]-1H-pyrazolo[3,4-b]pyridin-5-yl}-7-methyl-6,7,8,9-tetrahydro-5H-benzo[7]annulen-7-yl)azetidine] |
| 0.1 to 1 µM | < 0.1 µM | C[C@@H]1CCCN1C1(C)CCc2ccc(-c3cnc4[nH]nc(-c5ccc(S(=O)(=O)C6CCCC6)cc5)c4c3)cc2CC1 (stereo partly drawn) [Example 45, 3-(4-(Cyclopentylsulfonyl)phenyl)-5-(7-methyl-7-((R)-2-methylpyrrolidin-1-yl)-6,7,8,9-tetrahydro-5H-benzo[7]annulen-2-yl)-1H-pyrazolo[3,4-b]pyridine] |
| 0.1 to 1 µM | < 0.1 µM | CS(=O)(=O)c1ccc(-c2n[nH]c3ncc(-c4ccc5c(c4)CCN(C4CCCC4)CC5)cc23)cc1 [Example 30, 3-Cyclopentyl-7-(3-(4-(methylsulfonyl)phenyl)-1H-pyrazolo[3,4-b]pyridin-5-yl)-2,3,4,5-tetrahydro-1H-benzo[d]azepine] |
| 0.1 to 1 µM | < 0.1 µM | O=C([C@H]1CCCN1)N1CCc2ccc(-c3cnc4[nH]nc(-c5ccc(S(=O)(=O)C6CC6)cc5)c4c3)cc2CC1 [Example 113, 7-{3-[4-(Cyclopropanesulfonyl)phenyl]-1H-pyrazolo[3,4-b]pyridin-5-yl}-3-[(2R)-pyrrolidine-2-carbonyl]-2,3,4,5-tetrahydro-1H-3-benzazepine] |
| < 0.1 µM | < 0.1 µM | C[C@@H]1CCCN1C1CCc2ccc(-c3cnc4[nH]nc(-c5ccc(S(C)(=O)=O)cc5)c4c3)cc2CC1 (stereo partly drawn) [Example 38, 5-(7-((R)-2-Methylpyrrolidin-1-yl)-6,7,8,9-tetrahydro-5H-benzo[7]annulen-2-yl)-3-(4-(methylsulfonyl)phenyl)-1H-pyrazolo[3,4-b]pyridine] |
